Assay results: patent EP4653001A1, “TREATMENT, DIAGNOSIS AND/OR PROGNOSIS OF MITOCHONDRIAL DISEASES” (Universidad Autónoma de Madrid, priority 2024, dated 2025)

What was measured:
[1] = tested on: mouse primary astrocytes; assay: Morphology, proliferation and viability of primary astrocytes; assay type: cell-based
Procedure: All cell lines, 143b, HeLa, U2OS, and transmitochondrial cybrids carrying mutation in CI (ND2), CIII (CytB) or CIV (Cox2) subunits, were maintained in DMEM high glucose (HyClone), 10% FBS and 1% P/S at 37°C with 5% CO2. Mitochondrial mutant cells were cultured with supplementation of 50 µg/mL uridine. The selected cancer cell lines with different levels of malic enzyme (HCC15, KYSE410, CAKI1, J82, MDAMB453, Colo320, NCIH1703) were obtained from the DSMZ-German Collection of Microorganisms and Cell Cultures GmbH and cultured in the same DMEM 10% FBS medium. OCI-Lys3 and RCH-ACV cell lines (cells in suspension), were obtained from the same repository and cultured in RPMI 10% FBS medium. Transfections for gain- and loss-of-function studies were performed according to the manufacturer's instructions using the polyfect reagent (Qiagen, 301107). For cell number and proliferation experiments, cells were seeded in 12 or 6-well plates and allowed to proliferate for the specified durations. Subsequently, cells were trypsinized and quantified using a hemocytometer (NanoEnTek, DHC-N01). Cell viability was quantified using propidium iodide (PI; 50 µg/ml) staining.
Primary cultures of C57BL/6 mouse cortical astrocytes were derived from postnatal day 2-3 pups. […]

[2] = tested on: primary neurons; assay: Patch-clamp capacitance analysis; assay type: cell-based, mouse; conditions: CI inhibition
Procedure: A glass coverslip containing mixed cortical cultures of 10-14 DIV was placed in an immersion chamber constantly perfused with aCSF (119 mM NaCl, 2.5 mM KCl, 2.5 mM CaCl2, 1.2 mM MgCl2, 26 mM NaHCO3, 1 mM NaH2PO4, 11 mM glucose pH adjusted to 7.4 and osmolarity to 290 ±5 mOsm) gassed with carbogen (5-10% CO2, 90-95% O2) and its temperature closely monitored at 29°C. Cells were recorded under current-clamp configuration with patch recording glass electrodes (4-6 MΩ) composed of silver/silver chloride electrodes inserted in glass pipettes filled with internal solution (115 mM K gluconate, 20 mM KCl, 10 mM HEPES, 2 mM MgCl2, 4 mM Na2-ATP, 0.3 mM Na3-GTP pH adjusted to 7.2-7.3 and osmolarity to 290 ±5 mOsm). Resting membrane potential was directly acquired from these recordings. Voltage responses to current injections of -100 pA were used to calculate whole-cell input resistance and membrane capacitance. This last parameter is calculated from the exponential time constant (τ) of the voltage change, as τ=R*C (R: input resistance, C: capacitance).
Data acquisition was carried out with MultiClamp 700 A/B amplifiers and pCLAMP 9/10 software (Molecular Devices). Data analysis was performed using Clampfit software (Molecular Devices).

[3] = tested on: cortical neurons; assay: ATP measurement in live neurons (FRET ATP biosensor); assay type: cell-based, rats; conditions: soma or axons, 100 nM, 24 h
Procedure: ATP measurements was performed in primary co-cultures of cortical neurons and astrocytes from P1-2 wild-type rats of the Sprague-Dawley strain Crl:CD(SD), which are bred by Charles River Laboratories following the international genetic standard protocol (IGS). All experiments were carried out in strict accordance with the guidelines of the European Directive 2010/63/EU and the French Decree n° 2013- 118 concerning the protection of animals used for scientific purposes. Neurons were plate on poly- ornithine (Sigma-Aldrich, P3655) coated coverslips and maintained in culture media composed by MEM (Thermo Fisher Scientific, 51200-046), 20 mM Glucose (Sigma-Aldrich, G8270), 0.1 mg/mL transferrin (Sigma-Aldrich, 616420), 1% Glutamax (Thermo Fisher Scientific, 35050-038), 24 µg/mL insulin (Sigma-Aldrich, I6634), 5% FBS (Thermo Fisher Scientific, 10082-147), 2% N-21 (Bio-techne, AR008) and 4µM cytosine β-d-arabinofuranoside (Sigma-Aldrich, C6645). Cultures were incubated at 37°C in 95% air / 5% CO 2 humidified incubator.
Neurons were transfected at DIV 8 with ATeam1.03-nD/nA/pcDNA3 (gift from Takeharu Nagai (Addgene plasmid # 51958; http://n2t.net/addgene:51958; RRID:Addgene_51958)) and imaged at DIV 19. […] Fluorescence emission from ATeam was imaged using a FS 78 HE Dual camera; the exposure times were 250 ms for CFP and YFP images. […]

Which proliferation ([1]; PC and ME1 knockdown astrocytes vs WT controls, 100nM, 96 h) does the source give for `CC=C(C)C(O)C(C)C=C(C)C=CCC(C)=CCc1nc(OC)c(OC)c(O)c1C` (stereo not shown) [Piericidin, Piericidin A] here?
Its proliferation is “proliferated less”.

And the “morphology, proliferation, or overall viability” value ([1]; mouse primary astrocytes)?
The value was “no discernible impact”.

And the capacitance [2]?
The capacitance was “lower”.

And the “ATP (genetically encoded biosensor)” value [3]?
The value was “did not altered”.
